According to patent publication US11780821B2, “Inhibitors of fibroblast activation protein” (Praxis Biotech LLC, priority 2017, dated 2023):
Like-named read-outs stand apart in the source and are kept apart here.

What was measured:
[1] = target: T1, recombinant human FAPα (rhFAPα) (Homo sapiens, UniProt Q12884); assay: FAPα enzymatic endopeptidase (collagenase) activity assay; assay type: biochemical; details: DQ collagen substrate, read-out: rhFAPα (endo IC50)
T1 construct: purchased R&S system (so in the source)
T1 sequence (Q12884 1-760): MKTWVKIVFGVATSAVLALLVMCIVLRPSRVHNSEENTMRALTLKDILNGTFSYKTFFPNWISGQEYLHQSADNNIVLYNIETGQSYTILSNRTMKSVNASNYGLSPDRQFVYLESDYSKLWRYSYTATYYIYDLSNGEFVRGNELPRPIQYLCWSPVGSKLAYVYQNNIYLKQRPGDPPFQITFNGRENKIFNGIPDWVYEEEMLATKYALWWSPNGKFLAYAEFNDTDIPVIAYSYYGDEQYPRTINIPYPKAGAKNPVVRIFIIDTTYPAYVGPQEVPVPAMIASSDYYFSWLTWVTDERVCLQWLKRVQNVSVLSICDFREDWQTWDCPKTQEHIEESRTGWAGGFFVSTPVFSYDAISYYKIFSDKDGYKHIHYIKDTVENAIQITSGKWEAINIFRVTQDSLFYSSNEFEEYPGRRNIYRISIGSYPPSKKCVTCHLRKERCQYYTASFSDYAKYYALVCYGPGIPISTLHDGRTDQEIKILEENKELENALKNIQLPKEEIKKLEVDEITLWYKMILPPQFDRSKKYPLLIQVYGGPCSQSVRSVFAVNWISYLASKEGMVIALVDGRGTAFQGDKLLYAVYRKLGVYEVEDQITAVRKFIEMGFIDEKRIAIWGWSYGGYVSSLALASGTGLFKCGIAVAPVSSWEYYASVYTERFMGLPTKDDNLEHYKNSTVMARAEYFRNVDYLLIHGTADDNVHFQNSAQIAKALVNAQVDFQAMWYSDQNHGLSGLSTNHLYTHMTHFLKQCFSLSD
Protocol: FAPα enzymatic endopeptidase (collagenase) activity assay. […] All measurements were performed as a single point.

[2] = Intravenous and oral bioavailability in mice; assay type: in vivo; details: mouse; for AUC(0-t): oral (PO) 10 mg/kg single dose; for bioavailability: PO 10 mg/kg vs IV 2 mg/kg, read-out: F (bioavailability)
Protocol: The pharmacokinetic properties of exemplary test compounds were assayed after administration of an intravenous (IV) 2 mg/kg or oral (PO) 10 mg/kg single dose in mice. Exemplary test compounds were formulated at 0.4 and 1 mg/ml in a vehicle containing Poly-Ethylene Glycol 200 (PEG200; Cat. No. #P3015, Sigma Aldrich) and distilled water (dH2O) (50/50, v/v) as dosing solutions for intravenous and oral administration, respectively.
C57BL/6j and Balb/c mice, approximately 8-10 weeks old, were obtained from the vivarium Fundación Ciencia & Vida Chile (Santiago, Chile) and maintained in a temperature-controlled room with 12/12 hr light/dark schedule with food and water ad libitum. Animals were acclimated for a minimum period of 4 days upon arrival at the testing facility.
On the day of study, mice were weighed and identified by marking the tail with numbers using a non-toxic permanent marker for designation into the experimental groups (n=3 per group). Each mouse in the IV dosing groups received a systemic bolus of 2 mg/kg dosing solution via the caudal vein.
Non-dosed mice were used to collect samples of zero time points. […] Blood samples were centrifuged immediately at 9,000 g at 4° C. for 5 min and the plasma was separated.
The plasma samples were analyzed by QTRAP 4500 triple quadrupole mass spectrometer (Applied Biosystems SCIEX) in positive or negative ion mode depending on the tested compound and interfaced with an ekspert ultraLC 100-XL UPLC System (eksigent) to determine the concentration of the exemplary test compound. […] The precipitated samples were centrifuged at 6,100 g for 30 min at 4° C. Following centrifugation, an aliquot of each supernatant was transferred into a clean sample vial and diluted with two volumes of aqueous mobile phase (0.2% formic acid in water). Samples were injected onto a reverse phase analytical column (YMC Triart C18; 2.0×50 mm; 1.9 μm; YMC CO) and eluted with a gradient of 0.1 or 0.2% formic acid in Acetonitrile. Test compound and internal standard were monitored by a multiple reaction monitoring (MRM) experiment using Analyst software (v1.6.2, Applied Biosystems SCIEX). Quantitation was conducted using MultiQuant software (v2.1, Applied Biosystems SCIEX) and the resulting calibration curve was fitted with a linear or quadratic regression and 1/x weighting.
IV and PO PK parameters were calculated from the concentration-time data using Phoenix WinNonlin software (v6.4, Certara, Princeton, N.J.) by noncompartmental analysis. Area under the concentration-time curve (AUClast) was estimated using a log-linear trapezoidal method, from the dosing time to the last measurable concentration.

SMILES	IC50 [1] [nM]	AUC(0-t) ([2]; plasma) [ng·h/mL]	bioavailability ([2]; plasma) [%]	bioavailability ([2]; in vivo) [%]	AUC(0-t) ([2]; in vivo, plasma) [ng·h/mL]
N#C[C@@H]1CC(F)(F)CN1C(=O)CNC(=O)c1c[nH]c(=O)c(-c2ccccc2)c1 [Compound 14, (S)—N-(2-(2-cyano-4,4-difluoropyrrolidin-1-yl)-2-oxoethyl)-6-oxo-5-phenyl-1,6-dihydropyridine-3-carboxamide]	< 1000				
N#C[C@@H]1CC(F)(F)CN1C(=O)CNC(=O)c1ccncc1Cc1ccccc1 [Compound 50, (S)-3-benzyl-N-(2-(2-cyano-4,4-difluoropyrrolidin-1-yl)-2-oxoethyl)isonicotinamide]		1090	79.6		
N#C[C@@H]1CC(F)(F)CN1C(=O)CNC(=O)c1ccncc1-c1ccccc1 [Compound 13, (S)—N-(2-(2-cyano-4,4-difluoropyrrolidin-1-yl)-2-oxoethyl)-3-phenylisonicotinamide]	< 1000	760	27.9		
N#C[C@@H]1CC(F)(F)CN1C(=O)CNC(=O)c1ccncc1C1=CCNCC1 [Compound 105, (S)—N-(2-(2-cyano-4,4-difluoropyrrolidin-1-yl)-2-oxoethyl)-1′,2′,3′,6′-tetrahydro-[3,4′-bipyridine]-4-carboxamide 2,2,2-trifluoroacetate]	< 1000			3	18.3
N#C[C@@H]1CC(F)(F)CN1C(=O)CNC(=O)c1ccncc1C1CC1 [Compound 24, (S)—N-(2-(2-cyano-4,4-difluoropyrrolidin-1-yl)-2-oxoethyl)-3-cyclopropylisonicotinamide]	< 1000	910	54		
N#C[C@@H]1CC(F)(F)CN1C(=O)CNC(=O)c1c[nH]c(=O)c2ccccc12 [Example 1, (S)—N-(2-(2-cyano-4,4-difluoropyrrolidin-1-yl)-2-oxoethyl)-1-oxo-1,2-dihydroisoquinoline-4-carboxamide]	< 1000	327	6.3		
N#C[C@@H]1CC(F)(F)CN1C(=O)CNC(=O)c1c[nH]c(=O)cc1-c1ccc(F)cc1 [Compound 109, (S)—N-(2-(2-cyano-4,4-difluoropyrrolidin-1-yl)-2-oxoethyl)-4-(4-fluorophenyl)-6-oxo-1,6-dihydropyridine-3-carboxamide]	< 1000	2140	9		
N#C[C@@H]1CC(F)(F)CN1C(=O)CNC(=O)c1ccncc1-c1ccc(F)cc1 [Compound 52, (S)—N-(2-(2-cyano-4,4-difluoropyrrolidin-1-yl)-2-oxoethyl)-3-(4-fluorophenyl)isonicotinamide]		721	30.3		
